Structures can show the parent of a compound that is named as a salt. Where only a bound is given, the exact number is not on record here.

One test deals with PDE4 (Homo sapiens, UniProt Q08499). Briefly: In-vitro assay for PDE4 enzymes, real-time enzyme-coupled spectrophotometric assay (Table 9). Type of test: biochemical. The settings on record: human PDE4D; activity class, Table 9; read-out: hPDE4D.
In another test the target is PDE4B (Homo sapiens, UniProt Q07343). The experiment in a line: In-vitro assay for PDE4 enzymes, real-time enzyme-coupled spectrophotometric assay, PDE4B Activity (Table 10). The conditions noted are these: human PDE4B (hPDE4B), enzyme-coupled spectrophotometric assay; read-out: PDE4B Activity, hPDE4B. It is filed as biochemical.
Sequence of PDE4B (Q07343 whole entry): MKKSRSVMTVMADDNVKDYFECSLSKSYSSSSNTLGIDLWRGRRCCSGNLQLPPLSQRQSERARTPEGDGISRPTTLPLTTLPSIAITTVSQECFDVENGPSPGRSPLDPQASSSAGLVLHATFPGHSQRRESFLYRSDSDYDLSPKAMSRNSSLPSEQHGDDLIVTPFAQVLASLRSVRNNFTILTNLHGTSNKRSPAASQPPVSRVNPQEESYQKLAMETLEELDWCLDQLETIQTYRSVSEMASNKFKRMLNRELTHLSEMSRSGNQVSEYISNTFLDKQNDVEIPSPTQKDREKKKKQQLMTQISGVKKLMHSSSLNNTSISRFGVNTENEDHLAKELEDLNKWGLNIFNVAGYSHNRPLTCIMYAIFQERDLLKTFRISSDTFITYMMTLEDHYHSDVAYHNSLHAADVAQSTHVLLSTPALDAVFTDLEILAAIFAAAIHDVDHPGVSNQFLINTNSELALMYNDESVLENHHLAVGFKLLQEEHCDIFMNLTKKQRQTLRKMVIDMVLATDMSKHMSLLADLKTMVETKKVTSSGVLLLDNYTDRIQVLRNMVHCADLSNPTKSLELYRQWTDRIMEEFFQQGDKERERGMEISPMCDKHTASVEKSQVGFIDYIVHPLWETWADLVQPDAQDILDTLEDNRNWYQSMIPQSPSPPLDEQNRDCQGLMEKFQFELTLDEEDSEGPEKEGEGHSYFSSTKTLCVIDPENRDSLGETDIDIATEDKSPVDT

Sequence of PDE4 (Q08499 whole entry): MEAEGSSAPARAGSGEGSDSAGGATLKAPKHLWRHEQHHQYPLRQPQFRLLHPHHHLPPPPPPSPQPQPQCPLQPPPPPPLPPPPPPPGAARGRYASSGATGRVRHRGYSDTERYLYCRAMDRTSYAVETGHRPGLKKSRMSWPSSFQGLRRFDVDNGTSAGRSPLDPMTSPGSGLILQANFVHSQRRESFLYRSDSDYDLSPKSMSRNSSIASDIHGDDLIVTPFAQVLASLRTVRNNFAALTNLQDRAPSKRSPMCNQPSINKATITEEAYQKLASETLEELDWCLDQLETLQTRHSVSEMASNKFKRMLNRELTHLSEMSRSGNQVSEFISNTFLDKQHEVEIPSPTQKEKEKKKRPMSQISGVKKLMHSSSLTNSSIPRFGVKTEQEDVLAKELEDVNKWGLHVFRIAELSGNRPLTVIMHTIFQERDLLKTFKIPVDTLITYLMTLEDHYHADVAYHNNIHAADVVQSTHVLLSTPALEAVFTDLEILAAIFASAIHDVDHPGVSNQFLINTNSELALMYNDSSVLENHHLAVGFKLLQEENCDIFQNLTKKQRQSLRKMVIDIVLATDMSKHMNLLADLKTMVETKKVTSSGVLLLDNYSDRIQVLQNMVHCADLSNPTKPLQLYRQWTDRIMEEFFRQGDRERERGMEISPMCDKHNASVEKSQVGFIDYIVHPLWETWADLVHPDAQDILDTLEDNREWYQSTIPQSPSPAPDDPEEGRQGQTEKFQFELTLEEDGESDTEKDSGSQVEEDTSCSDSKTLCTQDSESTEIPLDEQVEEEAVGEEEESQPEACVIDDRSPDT

As to `COc1ccc(Cc2cccc(N)c2)cc1-c1cccc(Cl)c1` [P-255, 3-(3′-Chloro-6-methoxy-biphenyl-3-ylmethyl)-phenylamine], the IC50 on PDE4 and at PDE4B was under 5 µM in each case.
Turning to `COc1ccc(Cc2ccc(N)nc2)c(F)c1-c1cccc(C(C)=O)c1` [P-277, 1-[3′-(6-Amino-pyridin-3-ylmethyl)-2′-fluoro-6′-methoxy-biphenyl-3-yl]-ethanone], the IC50 on PDE4 and at PDE4B was under 5 µM throughout.
As for `COc1ccc(Cc2ccc3cnc(C(N)=O)n3c2)c(F)c1-c1cccc(Cl)c1` [P-445, 6-(3′-chloro-2-fluoro-6-methoxy-biphenyl-3-ylmethyl)-imidazo[1,5-a]pyridine-3-carboxylic acid amide], the figures for the IC50 at PDE4 and at PDE4B were under 5 µM and 5 to 20 µM, respectively.
As for `COc1ccc(Cc2ccc(NS(C)(=O)=O)cc2)cc1-c1cccc(Cl)c1` [P-246, N-[4-(3′-Chloro-6-methoxy-biphenyl-3-ylmethyl)-phenyl]-methanesulfonamide], the values for the IC50 on PDE4 and on PDE4B were 5 to 20 µM and under 5 µM, respectively.
`COc1ccc(COC2=CC(=O)CC2)cc1-c1cccc([N+](=O)[O-])c1` [P-092, 3-(6-Methoxy-3′-nitro-biphenyl-3-ylmethoxy)-cyclopent-2-enone]: the IC50 at PDE4 and on PDE4B was under 5 µM each time.
For the compound `COc1ccc(Cn2cncn2)cc1-c1cccc(C#N)c1` [P-081, 2′-Methoxy-5′-[1,2,4]triazol-1-ylmethyl-biphenyl-3-carbonitrile], the values for the IC50 at PDE4 and at PDE4B were under 5 µM and 5 to 20 µM, respectively.
The matching figures for `COc1ccc(Cc2ccc(NC(=O)CN)cc2)cc1-c1cccc([N+](=O)[O-])c1` [P-145]: under 5 µM and under 5 µM.
In the case of `COc1ccc(CN2C(=O)CC[C@H]2CO)cc1-c1cccc([N+](=O)[O-])c1` [P-131, (S)-5-Hydroxymethyl-1-(6-methoxy-3′-nitro-biphenyl-3-ylmethyl)-pyrrolidin-2-one], the IC50 at PDE4 and at PDE4B was 5 to 20 µM each time.
Consider `COc1ccc(COc2ccc(Cl)nc2)c(F)c1-c1cccc(Cl)c1` [P-585], for which the IC50 on PDE4 and on PDE4B was under 5 µM throughout.
For `COc1ccc(CN2CCCC2=O)cc1-c1cccc([N+](=O)[O-])c1` [P-029, 1-(6-Methoxy-3′-nitro-biphenyl-3-ylmethyl)-pyrrolidin-2-one], the IC50 at PDE4 and at PDE4B was under 5 µM in each case.
For the compound `O=C1CCCN1Cc1ccc(O)c(-c2cccc([N+](=O)[O-])c2)c1O` [P-504, 1-(2,6-Dihydroxy-3′-nitro-biphenyl-3-ylmethyl)-pyrrolidin-2-one], the IC50 on PDE4 is under 5 µM; at PDE4B, 5 to 20 µM.
For the compound `COc1ccc(Cn2ccc(CN)cc2=O)cc1-c1cccc([N+](=O)[O-])c1` [P-213, 4-Aminomethyl-1-(6-methoxy-3′-nitro-biphenyl-3-ylmethyl)-1H-pyridin-2-one], the IC50 at PDE4 is 5 to 20 µM; on PDE4B it was under 5 µM.
As to `COc1ccc(Cc2ccc(CN3CCNC3=O)nc2)c(F)c1-c1cccc(Cl)c1` [P-374, 1-[5-(3′-Chloro-2-fluoro-6-methoxy-biphenyl-3-ylmethyl)-pyridin-2-ylmethyl]-imidazolidin-2-one], the IC50 on PDE4 and at PDE4B was under 5 µM in each case.
With `CNc1ccc(Cc2ccc(OC)c(-c3cccc(C(C)=O)c3)c2F)cc1` [P-331, [4-(3′-Acetyl-2-fluoro-6-methoxy-biphenyl-3-ylmethyl)-phenyl]-methyl-amine hydrochloride], the IC50 on PDE4 and on PDE4B was under 5 µM each time.
Regarding `COc1ccc(Cc2cnc(N3CC(O)C3)nc2)c(F)c1-c1cccc(C#N)c1` [P-417, 2′-Fluoro-3′-[2-(3-hydroxy-azetidin-1-yl)-pyrimidin-5-ylmethyl]-6′-methoxy-biphenyl-3-carbonitrile], the IC50 at PDE4 and on PDE4B was under 5 µM throughout.
As for `COc1ccc(Cc2ccc(F)cc2)c(F)c1-c1cccc(Cl)c1` [P-187], the IC50 on PDE4 and at PDE4B was under 5 µM in each case.
Consider `COc1ccc(Cn2cc(-c3ccccn3)cn2)c(F)c1-c1cccc(Cl)c1` [P-527, 2-[1-(3′-Chloro-2-fluoro-6-methoxy-biphenyl-3-ylmethyl)-1H-pyrazol-4-yl]-pyridine], for which the figures for the IC50 on PDE4 and at PDE4B were under 5 µM and 5 to 20 µM, respectively.
Turning to `COc1ccc(Cc2ccc(C(C)(C)O)nc2)cc1-c1cccc(Cl)c1` [P-605, 2-[5-(3′-chloro-6-methoxy-biphenyl-3-ylmethyl)-pyridin-2-yl]-propan-2-ol HCl salt], the IC50 at PDE4 and on PDE4B was under 5 µM each time.
Take `CCNC(=O)Nc1ccc(Cc2ccc(OC)c(-c3cccc(-c4nnn[nH]4)c3)c2F)cn1` [P-513, 1-Ethyl-3-{5-[2-fluoro-6-methoxy-3′-(1H-tetrazol-5-yl)-biphenyl-3-ylmethyl]-pyridin-2-yl}-urea]: the IC50 on PDE4 fell in the range of 5 to 20 µM; at PDE4B, 21 to 40 µM.
For the compound `COc1ccc([C@](C)(O)c2ccc(NC(C)=O)cc2)c(F)c1-c1cccc(Cl)c1` (single isomer, unassigned) [P-560], the IC50 at PDE4 and at PDE4B was 5 to 20 µM in each case.
`COc1ccc(Cn2cc(-c3cnccn3)cn2)c(F)c1-c1cccc(Cl)c1` [P-545, 2-[1-(3′-Chloro-2-fluoro-6-methoxy-biphenyl-3-ylmethyl)-1H-pyrazol-4-yl]-pyrazine]: the IC50 at PDE4 and at PDE4B was under 5 µM throughout.
Turning to `COc1ccc(Cc2ccc(CNC(N)=O)c(F)c2)c(F)c1-c1cccc(C(C)=O)c1` [P-330], the IC50 on PDE4 and at PDE4B was under 5 µM throughout.
With `COc1ccc(Cc2ccc(N3CCOC3=O)nc2)c(F)c1-c1cccc(Cl)c1` [P-469, 3-[5-(3′-Chloro-2-fluoro-6-methoxy-biphenyl-3-ylmethyl)-pyridin-2-yl]-oxazolidin-2-one], the IC50 on PDE4 and on PDE4B was under 5 µM in each case.
As to `COc1ccc(Cc2cnc(N3CC(O)C3)nc2)c(F)c1-c1cccc(Cl)c1` [P-393, 1-[5-(3′-Chloro-2-fluoro-6-methoxy-biphenyl-3-ylmethyl)-pyrimidin-2-yl]-azetidin-3-ol], the IC50 at PDE4 and at PDE4B was under 5 µM throughout.
As to `COCc1ccc(OC)c(-c2cccc([N+](=O)[O-])c2)n1` [P-025, 3-methoxy-6-methoxymethyl-2-(3-nitro-phenyl)-pyridine], the IC50 on PDE4 lay within 5 to 20 µM; at PDE4B, 21 to 40 µM.
For `COc1ccc(Cc2cnc(N(C)CCO)nc2)c(F)c1-c1cccc(Cl)c1` [P-458, 2-{[5-(3′-Chloro-2-fluoro-6-methoxy-biphenyl-3-ylmethyl)-pyrimidin-2-yl]-methyl-amino}-ethanol], the IC50 on PDE4 and at PDE4B was under 5 µM throughout.
Consider `COc1ccc(Cc2ccc(CNC(=O)N3CCN(C)CC3)nc2)c(F)c1-c1cccc(Cl)c1` [P-373, 4-Methyl-piperazine-1-carboxylic acid [5-(3′-chloro-2-fluoro-6-methoxy-biphenyl-3-ylmethyl)-pyridin-2-ylmethyl]-amide], for which the IC50 at PDE4 was under 5 µM; at PDE4B, 5 to 20 µM.
As for `CCNC(=O)N1CCN(c2cc(Cc3ccc(OC)c(-c4cccc(Cl)c4)c3F)ccn2)CC1` [P-519, 4-[4-(3′-Chloro-2-fluoro-6-methoxy-biphenyl-3-ylmethyl)-pyridin-2-yl]-piperazine-1-carboxylic acid ethylamide], the IC50 on PDE4 and on PDE4B was under 5 µM in each case.

(Values after patent publication US8791267B2, “Biaryl PDE4 inhibitors for treating inflammatory, cardiovascular and CNS disorders” (Decode Genetics EHF, priority 2007, dated 2014).)
